Measurements: patent US20080167248A1, “Anti-Aging Effects Of Substance P” (IMMUNEREGEN BIOSCIENCES, INC., priority 2004, published 2008)

What was measured:
Format in all cases: in vivo
human [1] = experiment: sleep pattern
Protocol: I have 6 hours sleep on a regular basis. Approximately a week ago, after taking the analog daily for 2 weeks, I was getting 5 hours sleep.

scalp hair of a human = experiment: hair styling gel with the analog applied daily to the scalp, hair colour; conditions: 0.001 mg/ml in hair styling gel, approximately 2 ml daily to scalp, after a few months; self-observation
Protocol: [Sar9,Met (02)11 ]-substance P was formulated in a hair styling gel at a concentration of 0.001 mg/ml and approximately 2 ml were applied daily to my scalp. […] I estimate my head of hair to be about 40% darker. This observation is consistent with results observed on radiation-exposed mice that had been given the substance P analog.

human [2] = experiment: residual muscle pain after a very hard workout
Text: I ran five miles with four 150M build-ups and threw a 6 Kg shot-put for the first time. This workout was followed by a session of weightlifting. Before I began treatment with the substance P analog I would take Advil™ at least twice on the day of the work out to prevent muscle pain.

human [3] = experiment: visual accommodation (adjustment time between long and near vision)
human [4] = experiment: running speed (150M build-ups, timed 200M run)
Text: After taking the analog, I “felt” much faster in my 150M build-ups than previously.

human [5] = experiment: short-term memory; conditions: since beginning to apply the analog; names and telephone numbers
Text: I can remember people's names and telephone numbers more readily.

radiation-exposed mice = experiment: hair regrowth in radiation-exposed mice given the substance P analog

## [Sar9,Met (02)11 ]-substance P
Human [1]; about a week later (now)
  quality of sleep, later: the vivid dreams and less waking up continue
Human [1]; about a week later (now), reverted
  hours of sleep per night, later: six
Human [1]; after taking the analog daily for 2 weeks
  quality of sleep: deeper with more vivid dreams and less “waking up.”
Human [1]; after taking the analog daily for 2 weeks, regular basis 6 hours
  hours of sleep: 5 h
Scalp hair of a human
  head of hair darker (estimate): about 40%
  overall color of hair: becoming more like my original brown color
Human [2]; after a very hard workout, self-observation
  reduction in residual muscle pain: very large reduction
Human [2]; after taking the analog
  tightness or soreness in right arm/shoulder from throwing the shot: nor did I experience tightness or soreness
Human [2]; five mile run, four 150M build-ups, 6 Kg shot-put, weightlifting, after taking the analog
  muscle pain after the hard workout: no muscle pain
Human [3]; after 97 days of administration
  adjustment time between long and near vision after 97 days: little adjustment time
Human [3]; during administration
  adjustment time between long and near vision: shorter and continues to diminish
Human [4]; after taking the analog, versus previously
  perceived speed in 150M build-ups: much faster
Human [4]; timed run
  time in a 200M run: significantly improved
Human [5]
  memory problems: less “middle-aged” memory problems
radiation-exposed mice; radiation-exposed mice given the substance P analog
  regrowth of hair lost upon radiation exposure: regrew hair that was lost upon radiation exposure
radiation-exposed mice; radiation-exposed mice, versus non-exposed area
  colour of new hair growth: darker than in the non-exposed area
